# From patent US20160206642A1, “CLOCK GENE EXPRESSION LEVEL REGULATOR” (SUNTORY HOLDINGS LIMITED, priority 2013, published 2016)
# How the values were obtained:
# Bmal1 clock gene [1] = assay: Bmal1 clock gene expression in HepG2 cells by qPCR; type: cell-based, human; conditions: HepG2, 50 μg/mL, eight hours after addition, DMSO control
# Protocol: (§1) Cultured cells (human liver cancer-derived cell line HepG2) were seeded at 2.5×10^3 cells/cm^2 in a T-75 flask (BD Falcon™), and medium replacement (RPMI1640, 10% FBS) was performed every three days. The cells reaching 80% confluence were passaged at a concentration of 4.2×10^4 cells/mL in a 6-well plate (BD Falcon™), and in order to entrain the phases of the circadian rhythms of the cells, the medium was replaced with a low-serum medium (RPMI1640, 2% FBS) after three days. Three days after the replacement with a low-serum medium, the cells were subjected to testing. A solution of the test substance in DMSO (50 μg/μL) was prepared and added to the 6-well plate to give a final concentration of the test substance of 50 μg/mL. As a control, DMSO was added to the 6-well plate (to give a final concentration of 0.1%).
# (§2) Eight hours after the addition of the test substance, the cells were harvested, and mRNA was extracted according to a conventional method. The extracted mRNA was used to analyze the expression levels of the Bmal1 and Per1 clock genes by qPCR (with Applied Biosystems 7900HT Fast Real-Time PCR System).
# Per1 clock gene [2] = assay: Per1 clock gene expression in HepG2 cells by qPCR; type: cell-based, human; conditions: HepG2, 50 μg/mL, eight hours after addition, DMSO control
# Protocol: as §1, §2
# Bmal1 clock gene [3] = assay: Bmal1 clock gene expression in liver of SD rats by quantitative PCR; type: in vivo; conditions: 200 mg/5 mL/kg orally once daily for 5 days, sampled four hours after the last treatment
# Protocol: (§3) Seven-week-old male SD rats were habituated for one week and then classified into a test food group (isolated oleuropein group) and a control group (each group consisting of 6 animals). Next, the isolated oleuropein was dissolved in distilled water (produced by Otsuka Pharmaceutical Co., Ltd.), and the solution was orally administered forcibly to the test food group at a dose of 200 mg/5 mL/kg once daily for 5 days. The control food group was orally fed forcibly with distilled water (produced by Otsuka Pharmaceutical Co., Ltd.) at a dose of 5 mL/kg once daily for 5 days. Four hours after the last treatment, liver sampling was done.
# (§4) From the liver samples collected, total RNA was extracted according to a conventional method, and used to analyze the expression levels of the Bmal1 and Per1 clock genes by quantitative PCR (with Applied Biosystems 7900HT Fast Real-Time PCR System).
# Per1 clock gene [4] = assay: Per1 clock gene expression in liver of SD rats by quantitative PCR; type: in vivo; conditions: 200 mg/5 mL/kg orally once daily for 5 days, sampled four hours after the last treatment
# Protocol: as §3, §4
Structure (SMILES),Bmal1 expression (Bmal1 clock gene [1]),Per1 expression (Per1 clock gene [2]),Bmal1 expression as compared to the control group (Bmal1 clock gene [3]),Per1 expression as compared to the control group (Per1 clock gene [4])
"COC(=O)C1=CO[C@@H](C)[C@@H](C=O)C1CC(=O)OCCc1ccc(O)c(O)c1 (mixture of isomers) [3,4-DHPEA-EA, 3,4-Dihydroxyphenylethanol-elenolic acid]",reduced,increasing,,
"C/C=C1/[C@H](O[C@@H]2O[C@H](CO)[C@@H](O)[C@H](O)[C@H]2O)OC=C(C(=O)OC)[C@H]1CC(=O)OCCc1ccc(O)c(O)c1 [isolated oleuropein, Oleuropein]",,,significant decrease,significant increase
